Source: patent US20030077740A1, “Presenilin/Crk binding polypeptides (PCBP) and methods of use thereof” (priority 2001, published 2003)

Experiments:
[1] = test system: large hydrophilic loop of PS2; experiment: co-immunoprecipitation in 293T cells, PS2 loop; assay type: binding; details: immunoprecipitation with anti-TAG, 48 hrs after transfection
Experimental: To confirm the yeast two-hybrid data, the interaction between PBP and PSs was assayed in mammalian cells by immunoprecipitation. Human kidney 293-T cells, and monkey kidney COS-7 cells were cultured in Dulbecco's modified Eagle's medium supplemented with 10% fetal calf serum at 37° C. in a 10% CO2 atmosphere. A nine-amino acid TAG epitope ([…]) (SEQ ID NO:6) was incorporated in-frame at the 3′ end of the PBP cDNA (PBP-TAG), and an eight amino acid FLAG epitope ([…]) (SEQ ID NO:7) was attached in frame at the 5′ end of the large hydrophilic loop of PS1 cDNA and at the 3′ end of full length PS1 cDNA as described previously (Kimura, H., Proc. Natl. Acad. Sci. (USA), 90:2165-2169 (1993)). The resulting fragments were inserted into the pCIS2 expression vector (Genentech, San Francisco, Calif.) for transient or constitutive expression. […]
(§1) For immunoprecipitation of the large hydrophilic loop of PSs or Crk with PBP, cells were lysed in RIPA buffer (100 mM NaCl, 0.5% NP-40, 0.5% DOC, 0.1% SDS, 50 mM Tris, pH 7.5, 1 mM PMSF and 1 μg/ml aprotinin, 1 μg/l leupeptin) on ice for 30 min. […] The bound antibodies were detected by the ECL-plus chemiluminescence system (Amersham, Arlington Heights, Ill.).

full length PS1 [2] = target: T1, full length PS1 (Homo sapiens, UniProt P49768); experiment: co-immunoprecipitation with full length PS1 in 293T cell lines; assay type: binding; details: co-immunoprecipitation, 293T lines stably expressing PS1
T1 construct: three different clonal 293T cell lines which stably express full length PS1 were transfected with PBP-TAG; expressed in transfected cells; host or cells: clonal 293T cell lines stably expressing PS1
From the text: (§2) To examine the interaction of PBP with the fill length PS molecule, three different clonal 293T cell lines which stably express full length PS1 were transfected with PBP-TAG and the ability of PS1 to bind to PBP assayed by immunoprecipitation. Forty-eight hrs after transfection, cells were lysed and proteins immunoprecipitated with 12CA5 (anti-TAG), which recognizes PBP-TAG (anti-PBP-TAG). The immunoprecipitates were subjected to polyacrylamide gel electrophoresis, transferred to Immobilon-P, and reacted with anti-TAG or an anti-serum against PS1.
as §1, with “min. For immunoprecipitation of full length PS1 with PBP, RIPA buffer with 1% NP40 but without DOC and SDS was used. Cell lysates were spun for 10 min at 10,000 g. The resulting supernatants were preadsorbed with anti-mouse IgG-agarose (Sigma) for 4 hours at 4° C. After centrifugation, antibody 12CA5 and anti-mouse IgG-agarose were added at 4° C. overnight.” for “min.”, “Ill.). […]” for “Ill.).”

full length PS1 [3] = target: T2, full length PS1 (Homo sapiens, UniProt P49768, L392V); experiment: as above; assay type: binding; details: PS1 expressing the L392V mutation, overexpressing cells
T2 construct: three different clonal 293T cell lines which stably express full length PS1 were transfected with PBP-TAG; expressed in transfected cells; host or cells: clonal 293T cell lines stably expressing PS1
From the text: as §2
as §1, with “min. For immunoprecipitation of full length PS1 with PBP, RIPA buffer with 1% NP40 but without DOC and SDS was used. Cell lysates were spun for 10 min at 10,000 g. The resulting supernatants were preadsorbed with anti-mouse IgG-agarose (Sigma) for 4 hours at 4° C. After centrifugation, antibody 12CA5 and anti-mouse IgG-agarose were added at 4° C. overnight.” for “min.”, “Ill.). […]” for “Ill.).”

Crk = target: T3, Crk (Homo sapiens, UniProt P46108); experiment: co-immunoprecipitation with Crk in 293T cells; assay type: binding; details: anti-PBP-TAG immunoprecipitation, Western blot with antibody against Crk
T3 construct: expressed in transfected cells; host or cells: 293T cells
T3 sequence (P46108 whole entry, species assumed): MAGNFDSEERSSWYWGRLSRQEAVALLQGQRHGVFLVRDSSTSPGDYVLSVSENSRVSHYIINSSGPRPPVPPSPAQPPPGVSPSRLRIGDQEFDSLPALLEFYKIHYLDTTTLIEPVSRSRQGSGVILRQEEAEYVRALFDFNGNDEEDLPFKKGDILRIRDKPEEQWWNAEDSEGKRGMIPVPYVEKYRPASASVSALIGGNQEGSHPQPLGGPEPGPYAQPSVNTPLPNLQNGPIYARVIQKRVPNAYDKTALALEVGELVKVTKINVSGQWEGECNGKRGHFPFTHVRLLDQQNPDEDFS
Experimental: Since PBP has two consensus sequences for Crk binding, the interaction between PBP and Crk was also examined. The expression plasmid containing PBP cDNA attached to TAG and a plasmid containing Crk cDNA were co-transfected into 293T cells. Forty-eight hrs later, cells were lysed and proteins immunoprecipitated with anti-PBP-TAG and run on SDS acrylamide gels.
For immunoprecipitation of the large hydrophilic loop of PSs or Crk with PBP, cells were lysed in RIPA buffer (100 mM NaCl, 0.5% NP-40, 0.5% DOC, 0.1% SDS, 50 mM Tris, pH 7.5, 1 mM PMSF and 1 μg/ml aprotinin, 1 μg/l leupeptin) on ice for 30 min. For immunoprecipitation of full length PS1 with PBP, RIPA buffer with 1% NP40 but without DOC and SDS was used. Cell lysates were spun for 10 min at 10,000 g. The resulting supernatants were preadsorbed with anti-mouse IgG-agarose (Sigma) for 4 hours at 4° C. After centrifugation, antibody 12CA5 and anti-mouse IgG-agarose were added at 4° C. overnight. After incubation with anti-mouse IgG-agarose, immunoprecipitates were subjected to SDS-polyacrylamide gel electrophoresis and transferred to Immobilon (Millipore, Bedford, Mass.). Western blot analysis with anti-FLAG and 12CA5 monoclonal antibodies or an antibody against Crk was then performed. The bound antibodies were detected by the ECL-plus chemiluminescence system (Amersham, Arlington Heights, Ill.).

[4] = test system: Ca2+-activated Cl- current; experiment: Ca2+-activated Cl- current induced by serum in Xenopus oocytes; assay type: cell-based
From the text: Xenopus oocytes contain a plasma membrane CF channel which is activated by increases in intracellular Ca^2+, and intracellular Ca^2+ release is activated exclusively by inositol 1,4,5-triphosphate (IP3) Miledi & Parker, J. Physiol., 415:189-210 (1989)). Lysophosphatidic acid (LPA) increases the Ca^2+-activated Cl^− current in oocytes expressing PS1 relative to control oocytes (Leissring et al. (1999)). Since PBP can associate with PS1, the effect of the interaction of PBP with PS1 on the activation of Ca^2+-activated Cl^− current induced by serum (Miledi & Parker (1989)) was examined with Xenopus oocytes. […] Injection of cRNAs into Xenopus oocytes and the electrophysiological recordings were done as described previously (Kimura & Schubert, Proc. Natl. Acad. Sci. (USA), 90:7508-7512 (1993)).

B103 (APP695) cells [5] = experiment: APP secretion by transfected B103 (APP695) cells, Western blotting; assay type: cell-based, rat
B103 (APP695) cells [6] = experiment: intracellular APP level and pulse-chase turnover in B103 cells; assay type: cell-based, rat

PBP: novel 2027 amino acid protein, 233 kD, binds presenilins and Crk; expressed from cDNA in cells (KYGVVICSFRGSVPQGLVLEIGETVQILEKCEGWYRGVSTKKPNVKGLFPANYIHLK; listed as Mus musculus)
interaction with large hydrophilic loop of PS2 [1]: interacts
interaction with full length PS1 (full length PS1 [2]): interacts
immune precipitation of PS1 L392V with PBP (full length PS1 [3]): immune precipitate with PBP
co-precipitation with Crk (Crk): co-precipitates
Ca2+-activated Cl- current ([4]; PBP alone expressed): slightly decreases
Cl- current ([4]; PS1-loop mutation L392V in the presence of PBP): does not suppress
Ca2+-activated Cl- current ([4]; co-expression with PS1, P<0.05 PS1 vs PS1+PBP): significantly suppresses
abundance of APP mRNAs (B103 (APP695) cells [5]; RT-PCR): not altered
secretion of sAPPβ (B103 (APP695) cells [5]; antibodies 22C11, GID and 6E10, vs cells without PBP): Less secretion
sAPPα secretion (B103 (APP695) cells [5]; co-expression with WT PS1 or FAD PS1 (L392V), relative to PBP alone): further reduced
secretion of β-laminin (B103 (APP695) cells [5]; specificity control): no effect
secretion of sAPPα (B103 (APP695) cells [5]; stable clones vs empty vector, antibody 6E10): dramatically decreased
APP secretion (B103 (APP695) cells [5]; transient transfection, uncloned population): reduction
intracellular APP protein level, pulse-chase (B103 (APP695) cells [6]; 10 min 35S-methionine label, chase 15-60 min): rapidly decreased
full length APP, intracellular level (B103 (APP695) cells [6]; APP695/PBP relative to APP695 cells, antibodies 6E10 and 22C11): reduced
